Assay [1] relates to SAN cells. In words: Spontaneous APs / pacing rate of isolated SAN cells from WT mice (patch clamp). The conditions noted are these: 2 μM TRAM-34 added to 50 nM isoproterenol. It is filed as cell-based, mouse. The procedure:
WT and CASQ2 D307H KI mice were anesthetized with isofluorane and sacrificed by cervical dislocation. The heart was rapidly removed and transferred into Tyrode solution containing heparin. […] The area was cleaned, cut into small strips and washed into a Low Calcium Solution, containing (in mM): 140 NaCl, 5.4 KCl, 0.5 MgCl2, 1.2 KH2PO4, 5 HEPES-NaOH, 50 taurine, 5.5 glucose (pH 6.9). The osmolarity was adjusted if needed to 315 mOsm.
The same solution, supplemented with 1 mg/ml albumin, 200 μM CaCl2, collagenase Type I (Worthington) or liberase TH (Roche), protease (Sigma) and elastase (Sigma) was used for enzymatic digestion as previously described [See, Mesirca, P., et al. Nat Commun 5, 4664 (2014)]. In this step, the tissue was gently resuspended with a polished Pasteur pipette in this solution for 9-13 minutes at 37° C. SAN samples were then washed three times in a modified “Kraftbrühe” solution, containing (in mM): 70 glutamic acid, 80 KOH, 20 KCl, 10 γ-Hydroxybutyric acid sodium salt, 10 KH2PO4, 10 HEPES-KOH, 10 taurine, 1 mg/ml albumin, 0.1 EGTA-KOH (pH 7.2). The same solution was used to re-suspend the single cells with a pipet by vigorous up and down, between 3 to 5 minutes at 37° C. Cells were then gradually exposed to increasing concentrations of calcium, following a “Ca^2+ readaptation” protocol [Mesirca et al., 2014, supra]. Experiments were performed the same day at 33° C.
In all experiments, the coverslips were perfused at 33° C. with an external solution containing (in mM): 140 NaCl, 4 KCl, 11 Glucose, 1.2 MgCl2, 1.8 CaCl2, 5.5 HEPES titrated to pH 7.4 with NaOH and adjusted at 320 mOsm with sucrose.
The spontaneous automaticity of isolated SAN cells was recorded under perforated-patch conditions by adding 30 μM β-escin49 to the intracellular solution containing (in mM): 130 KCl, 10 NaCl, 10 HEPES, 0.2 EGTA-KOH, 2 MgATP, 6.6 Phosphocreatine, 0.05 cAMP and 1 μM free Ca^2+ (pH 7.2). To record SK4 K+ current, a voltage ramp protocol was applied. SAN and hiPS-CMs were held at −40 mV and −20 mV, respectively to substantially inactivate voltage-gated Na^+ and Ca^2+ currents. Cells were stepped from −90 mV to +60 mV for 150 ms. Then, a cocktail (solution 1) containing (in mM) 0.3 cadmium, 0.025 ZD-7288 and 0.01 E-4031 was applied extracellularly to inhibit residual L-type and T-type voltage-gated Ca2+ currents, If and the IKr currents, respectively. […] For voltage-clamp recording of SAN cells, the intracellular solution was the same to that described above for recording spontaneous automaticity.
The spontaneous electric activity of the cell was recorded in the current clamp configuration of the patch clamp technique before (black trace) and during (violet trace) exposure to 2 μM clotrimazole.
FIG. 5E (Left) presents representative traces of spontaneous APs recorded in single SAN cell from WT mice.

Assay [2] concerns the target T1, SK4 K+ currents (Mus musculus, UniProt O89109).
T1 construct: representative traces of SAN cells isolated from WT and CASQ2-D307H KI mice; endogenous in cells; host or cells: primary sinoatrial node (SAN) cells dissociated from WT and CASQ2-D307H KI mouse hearts
In words: Voltage-ramp recording of TRAM-34-sensitive current in SAN cells from WT and CASQ2-D307H KI mice. Format: cell-based. The conditions noted are these: 5 μM TRAM-34 added to solution 1. From the text:
Individual SAN cells were isolated from WT and CASQ2-D307H homozygous KI mice and recorded as described above, except that cells were held at −40 mV to improve their stability.
FIGS. 5A-B presents representative traces of SAN cells isolated from WT and CASQ2-D307H KI mice. […] The orange traces indicate that cells were exposed to blocker solution 1. […] The inward hump and substantial inward and outward currents disappeared upon exposure of cells to solution 1 (orange traces).

In assay [3] the test system is intact SAN from CASQ2 D307H KI mice. In words: Spontaneous calcium transients ex vivo in intact SAN tissue from CASQ2-D307H KI mice (Fluo-4 AM). Format: cell-based, mouse. Conditions: 2 μM TRAM-34 added to 100 nM isoproterenol. The procedure:
SAN tissue preparations were dissected ex vivo from WT and CASQ2-D307H KI mice as described in Torrente, A. G., et al. Proc Natl Acad Sci USA 112, 9769-9774 (2015). The dissected whole SAN tissue was pinned on a hand-made chamber and was incubated in a Tyrode solution containing 10 μM Fluo-4 AM (Thermo Fisher Scientific) and pluronic acid for 1 hour at 37° C. in the dark. The SAN tissue was washed in Tyrode at 37° C. in the dark for 10 minutes before experiments. Fluorescence of calcium transients was recorded using a photomultiplier (PTi D-104) at 35° C. and the analog signals were digitized using Digidata 1440 (Molecular Devices) and analyzed with pCLAMP 10.5 software.
To investigate the spontaneous calcium transients of the SAN, intact SAN tissue preparations dissected ex vivo from WT and CASQ2-D307H KI mice were exposed to Fluo-4 AM as previously described [Torrente, A. G., et al. Proc Natl Acad Sci USA 112, 9769-9774 (2015)].
FIG. 6B presents representative traces of different types of calcium transient abnormalities recorded in intact SAN from CASQ2 D307H KI mice, termed as “local Ca^2+ release” (upper left), “double humped transients” (upper right), “large-stored released Ca^2+ waves” (lower left) and “calcium alternans” (lower right).
FIG. 6C presents representative trace of spontaneous calcium transients recorded from intact SAN of CASQ2 D307H KI. The baseline rate of calcium transients (control, black trace) yielded chaotic calcium transients (red trace) following incubation of the SAN with 100 nM isoproterenol.

Consider `Clc1ccccc1C(c1ccccc1)(c1ccccc1)n1cccn1` [TRAM-34, 1-[(2-chlorophenyl)diphenylmethyl]-1H-pyrazole], for which, in assay [1], the DD slope entry is “markedly reduced the DD slope”, the MDP entry is reported as “depolarized the MDP”, the beating rate result is recorded as “decreased the beating rate” and the “cells in which pacing activity stopped” value is listed as 3 out of 7. In assay [2], the TRAM-34-sensitive current density entry was “TRAM-34-sensitive currents with similar densities were isolated”. In assay [3], the “number of SANs displaying double humped transients or large-stored released Ca2+ waves” value is “zero” and the “shapes of isoproterenol induced aberrant calcium waves” value is “normalized the shapes of isoproterenol induced aberrant calcium waves”.

For the origin of these results see patent publication US11166940B2, “Treatment of cardiac disorders by blocking SK4 potassium channel” (Ramot at Tel-Aviv University Ltd., priority 2016, dated 2021).
